How the values were obtained:
tumor cells = experiment: Mitophagy by transmission electron microscopy; format: cell-based; details: concentration 0.3 μM, work time 3 hours; FIG. 3
Method: • (1) Apparatus: Transmission electron microscope Hitachi HT-7800 • (2) Reagent: glutaraldehyde • (3) Experimental method: cells are inoculated in a 6 cm diameter Petri dish and incubated with the compounds for 3 hours. The culture solution is poured out; a 2 mL glutaraldehyde working solution (2.5% glutaraldehyde and phosphate buffer (PB) system) restored to room temperature is added and put into a refrigerator at 4° C. after fixation for 15 minutes at room temperature; the fixation solution is diluted 2-3 times with PB after fixation for 2-3 hours, the PB used for washing is poured off, PB containing 5% Bovine albumin (BSA) is added with an amount of 1 mL, and the adherent fixed cells are scraped off using a cell scraper, collected into 1.5 mL centrifuge tubes, and centrifuged for 4-5 minutes at 2,500 revolutions per minute (rpm) at 4° C. to prepare samples. The images are analyzed by a transmission electron microscope.

[1] = Immunohistochemistry of heart, liver, spleen, lung and kidney in tumor-bearing mice; format: in vivo, BALB/c (nu/nu) nude mice; details: 1 mg/kg intraperitoneal injection once a day for 15 days; FIG. 6
Method: BALB/c (nu/nu) nude mice (with weights of 18-20 g and raised in an SPF-level animal room) are selected to construct a mouse transplantation tumor model in vitro, the mice are grouped and inoculated with human non-small cell lung cancer cells (A549), and tumor volumes in the mice grow to 100-300 mm^3. The drug is administered by intraperitoneal injection, and each mouse in an administration group is administered once a day and 1 mg/kg once according to body weight. In a control group, each mouse is administrated with a same volume of PBS buffer, the volume of each mouse is measured simultaneously, and the drug is continuously administered for 15 days. After the drug administration and treatment process is complete, the mice are killed by cervical dislocation, and the mouse tumors are stripped, photographed, and weighed.

| SMILES | autophagosome formation / mitophagy (tumor cells) | toxic side effects (heart, liver, spleen, lung, kidney) [1] |
| --- | --- | --- |
| CN(C(=O)CCCCCCCCCCCC[P+](c1ccccc1)(c1ccccc1)c1ccccc1)[C@H]1CC[C@@H](c2ccc(Cl)c(Cl)c2)c2ccccc21 [Mito-12-Ser, (13-(((1S,4S)-4-(3,4-dichlorophenyl)-1,2,3,4-tetrahydronaphthalen-1-yl)(methyl)amino)-13-oxytridecyl)triphenylphosphine] | induce autophagosome formation to phagocytize mitochondria | – |
| CN(C(=O)CCCCCCCCCC[P+](c1ccccc1)(c1ccccc1)c1ccccc1)[C@H]1CC[C@@H](c2ccc(Cl)c(Cl)c2)c2ccccc21 [Mito-10-Ser, (11-(((1S,4S)-4-(3,4-dichlorophenyl)-1,2,3,4-tetrahydronaphthalen-1-yl)(methyl)amino)-11-oxoundecyl)triphenylphosphine] | – | did not have significant toxic side effects |
| CN(C(=O)CC[P+](c1ccccc1)(c1ccccc1)c1ccccc1)[C@H]1CC[C@@H](c2ccc(Cl)c(Cl)c2)c2ccccc21 [Mito-2-Ser, (3-(((1S,4S)-4-(3,4-dichlorophenyl)-1,2,3,4-tetrahydronaphthalen-1-yl)(methyl)amino)-3-propanoyl)triphenylphosphine] | induce autophagosome formation to phagocytize mitochondria | – |
